We go through eight compounds from PMC8841740, “Fluorescent Ligand-Based Discovery of Small-Molecule Sulfonamide Agonists for GPR120” (Frontiers in Chemistry, 2022).

In data set [1] the test system is GPR120. The following applies: cited from earlier work.
Data set [2] has as its target T1, GPR40 (Homo sapiens, UniProt O14842).
T1 construct: expressed in transfected cells; host or cells: CHO (transient)
In words: GPR40 Ca2+ flow assay in CHO cells with transient GPR40 gene. It is filed as cell-based. The following applies: for EC50: CHO cells, GPR40, read-out: FFA1 (Ca2+ pEC50) (converted). The procedure: Ca^2+ flow activity was determined in HEK293 cells stably transfecting the GPR120-Rluc gene. After incubating the cells for 24 h, the medium was removed from the plate, and the cells were washed with HBSS buffer (without Ca^2+ and Mg^2+). Subsequently, a 2-μM Fluo-4 AM working solution in HBSS buffer (without Ca^2+ and Mg^2+) was added to the plate (40 μl per well). After incubating the cells for 20 min at 37°C, compound solution at different concentrations in HBSS buffer (per well 160 μl) was added. Followed by a 40-min incubation, the solution was removed from the plate, HEPES buffer (200 μl per well) was added, and the fluorescence intensity was detected using the microplate reader (Ex: 488 nm; Em: 520 nm) ([Watterson et al., 2017]).
Ca^2+ flow activity was determined in CHO cells with transient GPR40 gene by the same method as well, in which the GPR40 agonist TAK875 was used as a positive control.

The target of data set [3] is T2, GPR120 (Homo sapiens, UniProt Q5NUL3).
T2 sequence (Q5NUL3 1-361): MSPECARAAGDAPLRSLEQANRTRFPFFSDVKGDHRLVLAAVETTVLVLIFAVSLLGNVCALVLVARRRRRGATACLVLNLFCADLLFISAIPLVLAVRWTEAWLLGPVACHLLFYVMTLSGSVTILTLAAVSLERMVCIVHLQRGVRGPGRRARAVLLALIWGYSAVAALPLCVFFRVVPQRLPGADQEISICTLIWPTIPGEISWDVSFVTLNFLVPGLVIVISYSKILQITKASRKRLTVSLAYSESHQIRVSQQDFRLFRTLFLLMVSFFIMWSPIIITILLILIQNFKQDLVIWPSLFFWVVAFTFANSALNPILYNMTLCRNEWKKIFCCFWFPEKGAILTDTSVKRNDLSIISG
In words: Preliminary screening of agonists by BRET competition with probe N1. It is filed as binding. Further details: expressed in transfected cells. As to conditions: 10 μM compound, probe N1 400 nM. The procedure: HEK293 cells stably transfected with the GPR120-Rluc gene were seeded in a black 96-well plate (100 μl, 2 × 10^4 cells per well). After a 24-h incubation, the medium was removed, probe N1 (400 nM, 50 μl per well) was added, and 10 μM of the compound was added after a 30-min incubation as well. Followed by a 40-min incubation, coelenterazine (final concentration: 10 μM, 50 μl per well) was added to the plate. Afterward, the fluorescence intensity was measured at 450 and 550 nm with the microplate reader after another 10-min incubation.

Data set [4] concerns the target T2, GPR120. In words: GPR120 Ca2+ flow assay in HEK293 cells stably transfecting the GPR120-Rluc gene. It is filed as cell-based. The arrangement: expressed in transfected cells. As to conditions: for Emax (FFA4 Ca2+): GSK137647A used as a standard. Here is the method:
Ca^2+ flow activity was determined in HEK293 cells stably transfecting the GPR120-Rluc gene. After incubating the cells for 24 h, the medium was removed from the plate, and the cells were washed with HBSS buffer (without Ca^2+ and Mg^2+). Subsequently, a 2-μM Fluo-4 AM working solution in HBSS buffer (without Ca^2+ and Mg^2+) was added to the plate (40 μl per well).

The target in data set [5] is T2, GPR120. The data set can be described thus: BRET activity test (β-arrestin-2 recruitment, GPR120-YFP / β-arrestin-2-Rluc in HEK293 cells). It is filed as cell-based. Further details: host or cells: HEK293 (transfected with both plasmids). The following applies: for Emax (FFA4 β-arrestin2): GSK137647A used as a standard. Here is the method:
GPR120-YFP and β-arresting-2-Rluc plasmids were transfected into HEK293 cells. After a 24-h incubation, the cells were seeded in a black 96-well plate (100 μl, 20,000 cells per well). Followed by a 24-h incubation, the solution was removed from the plate, and compounds with different concentrations (100 μl per well) and coelenterazine (10 μM, 100 μl per well) were added, followed by the fluorescence intensity was measured at 460 and 520 nm with the microplate reader ([Christiansen et al., 2016]; [Hill et al., 2018]).

Data set [6] is described as follows: Optical property of fluorescent probes. As to conditions: for λabs: MeCN; for Φ (absolute quantum yield) / λem / λex: PBS; for SS (stokes shift): PBS buffer (pH = 7.4). It is filed as physicochemical. The procedure:
The stocking solution of probes was diluted with acetonitrile to 40 μM, and their ultraviolet absorption spectrum was scanned with an ultraviolet spectrophotometer. Secondly, the excitation and emission spectra of probes at 10, 20, 30, and 40 μM with PBS buffer were measured with a microplate reader. Moreover, the excitation and emission spectrum were recorded in four solvents: MeCN, DMSO, H2O, and EA, respectively.

Data set [7] addresses T2, GPR120. In words: BRET kinetic binding experiment of probe N1. Further details: expressed in transfected cells. The procedure:
HEK293 cells stably transfecting the GPR120-Rluc gene were seeded in two entirely black 96-well plates (100 μl, 2 × 10^4 cells per well). After a 24-h incubation, the medium was removed from the non-specific plate, coelenterazine was added to (final concentration: 10 μM, 50 μl per well) the plates, and BRET value was measured after a 5-min incubation. Probe N1 (500 nM, 100 μl per well) was then added, and the BRET value was recorded in a 30-s interval for 6 minutes. Finally, GSK137647A was added (50 μl per well), and BRET value was measured in a 30-s interval for 30 min.

Data set [8] deals with T2, GPR120. The data set can be described thus: Fluorescence imaging in HEK293 cells (stably transfected with GPR120) and PC-3 cells. It is filed as cell-based. Further details: expressed in transfected cells. As to conditions: HEK293 and PC-3 cells. The procedure:
HEK293 and PC-3 cells were seeded in fluorescent confocal dishes (5 × 10^3 per well). After the cells were iron-walled, the medium was removed from the dishes, the cells were washed once with a serum-free medium, and the probe was added. After incubating the cells for 10 min, the confocal dishes were observed by an inverted fluorescence microscope.

Data set [9] has as its target T2, GPR120. In words: BRET saturation experiment of probe N1. The following applies: 15 μM GSK134647A for non-specific binding. The arrangement: expressed in transfected cells. The procedure:
HEK293 cells stably transfecting the GPR120-Rluc gene were seeded in two black 96-well plates (100 μl, 2 × 10^4 cells per well). After incubating the cells for 24 h, the medium of the non-specific plate was removed, and positive control GSK134647A (15 μM, 50 μl per well) was added into each well. After a 40-min incubation, the medium was removed, and probe N1 was added into two plates (100 μl per well). Followed by incubation for 40 min, coelenterazine was added to the plates (final concentration: 10 μM, 100 μl per well for specific plates; 50 μl per well for non-specific plates). Finally, the fluorescence intensity was measured at 460 and 520 nm with the microplate reader after a 10-min incubation ([Christiansen et al., 2016]).

Where [10] appears, read: Table 3, read-out: FFA4 (Ca2+ pEC50) (converted).
Where [11] appears, read: Table 3, read-out: FFA4 (β-arrestin2 pEC50) (converted).
Where [12] appears, read: GPR120, Ca2+ flow, HEK293 GPR120-Rluc cells, read-out: pEC50 Ca2+ assay (converted).
Where [13] appears, read: GPR120, β-arrestin-2 activity test, read-out: pEC50 BRET (converted).

`Cc1ccc(S(=O)(=O)NC2c3ccccc3Oc3ccccc32)cc1` [AH-7614]: the “pEC50 (Literature)” value in data set [1] was <4.5^16.

`Cc1cc(C)c(NS(=O)(=O)c2ccc(-c3ccc(OC(F)(F)F)cc3)cc2)c(C)c1` [Compound B5, N-Mesityl-4′-(Trifluoromethoxy)-[1,1′-Biphenyl]-4-Sulfonamide] yielded a melting point of 169 to 170 °C. The EC50 in data set [2] is greater than 50.1 µM. Besides, in [3], the “inhibition rate in BRET screening compared with GSK137647A” value is “higher than GSK137647A”. For the same compound, the “Emax (FFA4 Ca2+)” value in [4] was found to be 1.27. The EC50 in [4] (setting [10]) was 0.0813 µM. The “Emax (FFA4 β-arrestin2)” value in data set [5] is given as 0.790. The EC50 in data set [5] (setting [11]) was 0.0437 µM.

`Cc1cc(C)c(NS(=O)(=O)c2ccc(-c3ccc(N)c(F)c3)cc2)c(C)c1` [Compound B6, 4′-Amino-3′-Fluoro-N-Mesityl-[1,1′-Biphenyl]-4-Sulfonamide] displayed a melting point of 176 to 177 °C. Moreover, the EC50 in [2] is greater than 50.1 µM. Also, the “inhibition rate in BRET screening compared with GSK137647A” value in [3] is listed as “higher than GSK137647A”. Also, the “Emax (FFA4 Ca2+)” value in data set [4] came to 1.25. The EC50 in data set [4] (setting [10]) is 0.204 µM. Moreover, the “Emax (FFA4 β-arrestin2)” value in data set [5] is listed as 0.881. For the same compound, the EC50 in [5] (setting [11]) is 0.132 µM.

Consider `Cc1cc(C)c(NS(=O)(=O)c2ccc(-c3ccc4ccccc4c3)cc2)c(C)c1` [Compound B7, N-Mesityl-4-(Naphthalen-2-yl)benzenesulfonamide], for which the melting point is 211 to 212 °C. For the same compound, the EC50 in [2] is greater than 50.1 µM. Moreover, the “inhibition rate in BRET screening compared with GSK137647A” value in data set [3] is recorded as “higher than GSK137647A”. Further, the “Emax (FFA4 Ca2+)” value in data set [4] is given as 0.285. Besides, the EC50 in data set [4] (setting [10]) is 0.138 µM. The “Emax (FFA4 β-arrestin2)” value in data set [5] worked out at 0.894. Also, the EC50 in data set [5] (setting [11]) is 0.0195 µM.

In the case of `O=S(=O)(Nc1ccc(Cl)cc1Cl)c1ccc(-c2ccc3ccccc3c2)cc1` [Compound D7, N-(2,4-Dichlorophenyl)-4-(naphthalen-2-yl)benzenesulfonamide], the melting point is 175 to 176 °C. Also, in data set [2], the EC50 was greater than 50.1 µM. In addition, the “inhibition rate in BRET screening compared with GSK137647A” value in [3] is recorded as “higher than GSK137647A”. Also, the “Emax (FFA4 Ca2+)” value in data set [4] is listed as 0.752. In addition, in data set [4] (setting [10]), the EC50 is 0.129 µM. Also, the “Emax (FFA4 β-arrestin2)” value in [5] is 1.17. Moreover, the EC50 in [5] (setting [11]) is 0.0166 µM.

In turn, `Cc1cc(C)c(NS(=O)(=O)c2ccc(NCCN3C(=O)c4cccc5c(N(C)C)ccc(c45)C3=O)cc2)c(C)c1` [Compound N1, 4-((2-(6-(Dimethylamino)-1,3-dioxo-1H-benzo[de]isoquinolin-2(3H)-yl)ethyl)amino)-N-mesitylbenzenesulfonamide] came in with a melting point of 230 to 231 °C. In addition, the “Ca2+ response to GPR40 compared with TAK875” value in [2] (TAK875 as positive control) is given as “much lower than that of TAK875”. Besides, in data set [6], the λabs was 419 nm, the “Φ (absolute quantum yield)” value was found to be 3.73%, the λem came out at 562 nm and the λex is listed as 444 nm. In addition, in data set [6], the “SS (stokes shift)” value stood at 118 nm. Moreover, in data set [7] (after adding excess GSK137647A), the “time to reach a stable state of dissociation from GPR120” value was found to be 30 min. Also, the Kd in data set [7] (kinetic binding experiment) amounted to 0.273 µM. Moreover, in data set [7] (probe 500 nM), the “time for binding to GPR120 to reach saturation” value is no more than 6 min. In addition, in data set [7] (probe 500 nM, dissociation by GSK137647A (10 μM), read-out: off-rate koff (converted)), the koff is 0.00113 s⁻¹. For the same compound, in [7] (probe 500 nM, read-out: on-rate kon (converted)), the on-rate constant (kon) was 4150 M⁻¹ s⁻¹. Moreover, the “fluorescence intensity in cell imaging” value in data set [8] is “much greater than that of N2 and N3”. Besides, in data set [4] (setting [12]), the EC50 was 0.891 µM. For the same compound, in data set [5] (setting [13]), the EC50 was 0.427 µM. The compound also had a Kd in data set [9] of 1.12 ± 0.6 µM.

Compound `Cc1cc(C)c(NS(=O)(=O)c2ccc(NCCCN3C(=O)c4cccc5c(N(C)C)ccc(c45)C3=O)cc2)c(C)c1` [Compound N2, 4-((3-(6-(Dimethylamino)-1,3-dioxo-1H-benzo[de]isoquinolin-2(3H)-yl)propyl)amino)-N-mesitylbenzenesulfonamide] came in with a melting point of 103 to 104 °C. In data set [6], the λabs is given as 418 nm, the “Φ (absolute quantum yield)” value came out at 2.28%, the λem turned out to be 562 nm and the λex is 439 nm. In addition, in data set [6], the “SS (stokes shift)” value is on record as 123 nm. Also, the EC50 in [4] (setting [12]) was 6.31 µM. In addition, the EC50 in data set [5] (setting [13]) is 0.562 µM.

In turn, `Cc1cc(C)c(NS(=O)(=O)c2ccc(NCCCCN3C(=O)c4cccc5c(N(C)C)ccc(c45)C3=O)cc2)c(C)c1` [Compound N3, 4-((4-(6-(Dimethylamino)-1,3-dioxo-1H-benzo[de]isoquinolin-2(3H)-yl)butyl)amino)-N-mesitylbenzenesulfonamide] registered a melting point of 184 to 185 °C. In data set [6], the λabs was 417 nm, the “Φ (absolute quantum yield)” value is on record as 1.03%, the λem was 560 nm and the λex turned out to be 438 nm. The “SS (stokes shift)” value in data set [6] was 122 nm. Also, in data set [4] (setting [12]), the EC50 was 8.91 µM. The EC50 in data set [5] (setting [13]) was 1.78 µM.
